One block for each molecule: values may come before it.
Columns and labels:
[1] = test system: snoRNAs; experiment: Gene expression profiling (Illumina HumanHT 12) of ABC DLBCL cell lines; type: cell-based; settings: 500 nM, 4-8 h; two ABC DLBCL cell lines
Description: (§1) Cell lines were exposed to YK-4-279 or TK-216, alone or in combination with other compounds, for 72 h using a Tecan D300e Digital Dispenser and 96 well plates. Cell proliferation was measured with MTT. Synergy was determined with the Chou-Talalay combination index. Gene expression profiling (GEP) was performed with the Illumina HumanHT 12 Expression BeadChips. In vivo studies were done in NOD-SCID mice and treatments started with 60 mm3 tumor volumes sc.
With the aim to understand the mechanism of action of YK-4-279 and TK-216, the baseline RNA expression levels of the different ETS factors were correlated with sensitivity to the drugs. SPIB was the gene presenting the most significant negative correlation with both YK-4-279 and TK-216, especially among the ABC DLBCL cell lines (P<0.05). SPIB is a known oncogene for ABC DLBCL (Lenz et al, PNAS 2008) and is involved in the response to lenalidomide in ABC DLBCL (Yang et al, Cancer Cell 2012). YK-4-279 inhibits the binding of EWS1-FLI1 to the helicases RHA and DDX5 (Selvanathan et al, PNAS 2012). Thus, it was assessed whether YK-4-279 and TK-216 can have a similar effect on SPIB and whether they induce cellular effects similar to lenalidomide. […] In ABC DLBCL, the ETS inhibitor YK-4-279 and its clinical derivative TK-216 interfere with SPIB and helicases involved in RNA editing. […]

[2] = test system: HL-60; experiment: 72 hr CellTiter-Glo, AML cell line; type: cell-based
[3] = test system: Kasumi-1; experiment: 72 hr CellTiter-Glo, AML cell line; type: cell-based
[4] = test system: ML-2; experiment: 72 hr CellTiter-Glo, AML cell line; type: cell-based
[5] = test system: MOLM-13; experiment: 72 hr CellTiter-Glo, AML cell line; type: cell-based
[6] = test system: MOLM-16; experiment: 72 hr CellTiter-Glo, AML cell line; type: cell-based
[7] = test system: THP-1; experiment: 72 hr CellTiter-Glo, AML cell line; type: cell-based
[8] = test system: TMD8 cells xenografts; experiment: TMD8 ABC-DLBCL xenograft in NOD-SCID mice; type: in vivo; settings: 100 mg/Kg, BID; n=9
Description: NOD-Scid mice subcutaneously inoculated with TMD8 cells (15×10^6) were split in two groups respectively treated with TK-216 (100 mg/kg, BID, po, n=9) and control vehicle (n=10). In each box-plot, the line in the middle of the box represents the median and the box extends from the 25th to the 75th percentile (interquartile range, IQ); the whiskers extend to the upper and lower adjacent values (i.e., ±1.5 IQ).
56 lymphoma cell lines [27 diffuse large B cell lymphoma (DLBCL); 10 mantle cell lymphoma; 6 marginal zone lymphoma; 5 anaplastic large T-cell lymphoma; 8 others] were exposed to TK-216 increasing doses for 72 h using a Tecan D300e Digital Dispenser and 384 well plates. Cell proliferation was measured with MTT. In vivo study was done in NOD-SCID mice; treatments were started with approximately sc 60 mm3 tumor volumes. Sensitivity was not affected by the lymphoma cell of origin (B vs T; activated B cell type DLBCL versus germinal center type DLBCL) or MYC and TP53 status. There was a non-statistically significant trend for lower sensitivity in cell lines bearing BCL2 chromosomal translocation (P=0.07, DLBCL only; P=0.06, all cell lines).
(§2) The latter synergism could be linked to the previously mentioned negative trend between TK-216 IC50 values and the presence of BCL2 translocation.
as §1

[9] = test system: DLBCL cell lines; experiment: Combination with other targeted agents, summary over DLBCL cell lines; type: cell-based; settings: with lenalidomide; four DLBCL cell lines (2 ABC, 2 GCB)
Description: as §2, §1
Since lenalidomide is active in mantle cell lymphoma (MCL), the synergism of the combination of TK-216 and lenalidomide was confirmed also in two MCL cell lines.

[10] = target: T1, SPIB to DDX5 (Homo sapiens, UniProt Q01892); experiment: Co-IP of SPIB with helicases in ABC DLBCL cell lines; type: cell-based; settings: 500 nM, 4-10 h
T1 construct: endogenous in cells
Excerpt: (§3) With the aim to understand the mechanism of action of YK-4-279 and TK-216, the baseline RNA expression levels of the different ETS factors were correlated with sensitivity to the drugs. SPIB was the gene presenting the most significant negative correlation with both YK-4-279 and TK-216, especially among the ABC DLBCL cell lines (P<0.05). SPIB is a known oncogene for ABC DLBCL (Lenz et al, PNAS 2008) and is involved in the response to lenalidomide in ABC DLBCL (Yang et al, Cancer Cell 2012). YK-4-279 inhibits the binding of EWS1-FLI1 to the helicases RHA and DDX5 (Selvanathan et al, PNAS 2012). Thus, it was assessed whether YK-4-279 and TK-216 can have a similar effect on SPIB and whether they induce cellular effects similar to lenalidomide. […] In ABC DLBCL, the ETS inhibitor YK-4-279 and its clinical derivative TK-216 interfere with SPIB and helicases involved in RNA editing. Moreover, both compounds act similarly to lenalidomide inhibiting IRF4 and upregulating IRF7 and synergize with the IMID in both ABC DLBCL and MCL.

[11] = target: T2, SPIB to RHA (Homo sapiens, UniProt Q01892); experiment: as above; type: cell-based; settings: 500 nM, 4-10 h
T2 construct: endogenous in cells
Excerpt: as §3

T1 sequence (Q01892 whole entry): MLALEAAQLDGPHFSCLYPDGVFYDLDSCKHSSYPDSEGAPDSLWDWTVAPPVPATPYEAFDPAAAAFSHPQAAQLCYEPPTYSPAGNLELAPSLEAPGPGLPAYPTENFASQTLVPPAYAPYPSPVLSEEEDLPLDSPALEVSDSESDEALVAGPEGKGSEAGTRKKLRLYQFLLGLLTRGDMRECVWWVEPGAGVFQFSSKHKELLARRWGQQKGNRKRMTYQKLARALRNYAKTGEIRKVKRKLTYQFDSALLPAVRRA
T2 sequence (Q01892 whole entry): as above

SMILES: COc1ccc(C(=O)C[C@@]2(O)C(=O)Nc3c(Cl)ccc(Cl)c32)cc1 [(S)-YK-4-279]
snoRNA expression (GEP) [1]: important upregulation of multiple snoRNAs

SMILES: N.N.[Cl][Pt][Cl] [Cisplatin, reference compound]
IC50 [2]: 1.93 µM
IC50 [3]: 4.56 µM
IC50 [4]: 1.4 µM
IC50 [5]: 0.798 µM
IC50 [6]: 2.19 µM
IC50 [7]: 1.36 µM

binding of SPIB to RHA [11]: decreased
SMILES: COc1ccc(C(=O)CC2(O)C(=O)Nc3c(Cl)ccc(Cl)c32)cc1 (centres unmarked) [YK-4-279, 4,7-dichloro-3-hydroxy-3-(2-(4-methoxyphenyl)-2-oxoethyl)indolin-2-one, reference compound]
tumor growth compared with control group [8]: reduction in tumor growth
combination of YK-4-279 plus lenalidomide [9]: synergism in both ABC DLBCL
binding of SPIB to DDX5 [10]: to a lesser extent, to DDX5 was decreased
